Measurements reported in patent publication US20260137703A1, “2-AMINO-PYRIDO[2,3-D]PYRIMIDIN-7(8H)-ONE AND 7-AMINO-1-PYRIMIDO[4,5-D]PYRIMIDIN-2(1 H)-ONE DERIVATIVES AS EGFR INHIBITORS FOR THE TREATMENT OF CANCER” (Cancer Research Technology Limited, priority 2022, published 2026).
Read-outs that look alike come from different tables or passages of the source.

With `CC(C)N1CCN(c2ccc3cc2NC(=O)CCCn2c(=O)cc(C#C[Si](C(C)C)(C(C)C)C(C)C)c4cnc(nc42)N3)CC1` the ring closure, isolated yield (from CC(C)N1CCN(c2ccc(Nc3ncc4c(C#C[Si](C(C)C)(C(C)C)C(C)C)cc(=O)[nH]c4n3)cc2NC(=O)CCCO)CC1, other bond, 13-membered ring, PPh3/DEAD, THF, 72.2 mM) was 44%.
Molecule `CC(C)[Si](C#Cc1cc(=O)n2c3nc(ncc13)Nc1ccc(N3CCCN(C)CC3)c(c1)NC(=O)CCC2)(C(C)C)C(C)C` has a ring closure, isolated yield (from CC(C)[Si](C#Cc1cc(=O)[nH]c2nc(Nc3ccc(N4CCCN(C)CC4)c(NC(=O)CCCO)c3)ncc12)(C(C)C)C(C)C, other bond, 13-membered ring, PPh3/DEAD, THF, 31.7 mM) of 41%.
In the case of `CC(C)[Si](C#Cc1cc(=O)n2c3nc(ncc13)Nc1ccc(N3CCN(C)CC3)c(c1)CC(=O)NCC2)(C(C)C)C(C)C`, the ring closure, isolated yield (from CC(C)[Si](C#Cc1cc(=O)[nH]c2nc(Nc3ccc(N4CCN(C)CC4)c(CC(=O)NCCO)c3)ncc12)(C(C)C)C(C)C, other bond, 13-membered ring, PPh3/DIAD, THF, 24.0 mM) is reported as 43%.
With `CC(C)[Si](C#Cc1cc(=O)n2c3nc(ncc13)Nc1ccc(N3CCN(C)CC3)c(c1)CN(C)CCC2)(C(C)C)C(C)C` the ring closure, isolated yield (from CC(C)[Si](C#Cc1cc(=O)[nH]c2nc(Nc3ccc(N4CCN(C)CC4)c(CN(C)CCCO)c3)ncc12)(C(C)C)C(C)C, other bond, 13-membered ring, PPh3/DIAD, THF, 24.4 mM) was 50%.
In the case of `CC(C)[Si](C#Cc1cc(=O)n2c3nc(ncc13)Nc1ccc(N3CCN(C)CC3)c(c1)CNCCC2)(C(C)C)C(C)C`, the ring closure, isolated yield (from CC(C)[Si](C#Cc1cc(=O)[nH]c2nc(Nc3ccc(N4CCN(C)CC4)c(CNCCCO)c3)ncc12)(C(C)C)C(C)C, other bond, 13-membered ring, PPh3/DIAD, THF, 20.5 mM) is reported as 53%.
`CC(C)[Si](C#Cc1cc(=O)n2c3nc(ncc13)Nc1ccc(N3CCN(C)CC3)c(c1)COCCC2)(C(C)C)C(C)C` gave a ring closure, isolated yield (from CC(C)[Si](C#Cc1cc(=O)[nH]c2nc(Nc3ccc(N4CCN(C)CC4)c(COCCCO)c3)ncc12)(C(C)C)C(C)C, other bond, 13-membered ring, PPh3/DIAD, THF, 24.0 mM) of 29%.
Work on `CC(C)[Si](C#Cc1cc(=O)n2c3nc(ncc13)Nc1ccc(N3CCN(C)CC3)c(c1)COCCCC2)(C(C)C)C(C)C` yielded a ring closure, isolated yield (from CC(C)[Si](C#Cc1cc(=O)[nH]c2nc(Nc3ccc(N4CCN(C)CC4)c(COCCCCO)c3)ncc12)(C(C)C)C(C)C, other bond, 14-membered ring, PPh3/DEAD, THF, 129.0 mM) of 28%.
Work on `CC(C)[Si](C#Cc1cc(=O)n2c3nc(ncc13)Nc1ccc(N3CCN(C)CC3)c(c1)NCCCC2)(C(C)C)C(C)C` yielded a ring closure, isolated yield (from CC(C)[Si](C#Cc1cc(=O)[nH]c2nc(Nc3ccc(N4CCN(C)CC4)c(NCCCCO)c3)ncc12)(C(C)C)C(C)C, other bond, 13-membered ring, PPh3/DIAD, THF, 24.0 mM) of 38%.
Molecule `CC(C)[Si](C#Cc1cc(=O)n2c3nc(ncc13)Nc1ccc(N3CCN(C)CC3)c(c1)OCC=CC2)(C(C)C)C(C)C` has a ring closure, isolated yield (from CC(C)[Si](C#Cc1cc(=O)[nH]c2nc(Nc3ccc(N4CCN(C)CC4)c(OC/C=C\CO)c3)ncc12)(C(C)C)C(C)C, other bond, 13-membered ring, PPh3/DIAD, THF, 24.0 mM) of 55%.
`CC(C)[Si](C#Cc1cc(=O)n2c3nc(ncc13)Nc1ccc(N3CCN(C)CC3)c(c1)OCCCC2)(C(C)C)C(C)C` gave a ring closure, isolated yield (from CC(C)[Si](C#Cc1cc(=O)[nH]c2nc(Nc3ccc(N4CCN(C)CC4)c(OCCCCO)c3)ncc12)(C(C)C)C(C)C, other bond, 13-membered ring, PPh3/DIAD, THF, 25.0 mM) of 42%.
`CC(C)[Si](C#Cc1cc(=O)n2c3nc(ncc13)Nc1ccc(N3CCN(C)CC3)c(c1)OCCCCC2)(C(C)C)C(C)C` showed a ring closure, isolated yield (from CC(C)[Si](C#Cc1cc(=O)[nH]c2nc(Nc3ccc(N4CCN(C)CC4)c(OCCCCCO)c3)ncc12)(C(C)C)C(C)C, other bond, 14-membered ring, PPh3/DIAD, THF, 24.3 mM) of 22%.
In the case of `CC(C)[Si](C#Cc1cc(=O)n2c3nc(ncc13)Nc1ccc(N3CCN(C)CC3)c(c1)OCCC[C@H]2C)(C(C)C)C(C)C`, the ring closure, isolated yield (from CC(C)[Si](C#Cc1cc(=O)[nH]c2nc(Nc3ccc(N4CCN(C)CC4)c(OCCC[C@H](C)O)c3)ncc12)(C(C)C)C(C)C, other bond, 13-membered ring, PPh3/DIAD, THF, 24.2 mM) is reported as 18%.
Molecule `CC(C)[Si](C#Cc1cc(=O)n2c3nc(ncc13)Nc1ccc(N3CCN(C)CC3)c(c1)S(=O)(=O)NCCC2)(C(C)C)C(C)C` has a ring closure, isolated yield (from CC(C)[Si](C#Cc1cc(=O)[nH]c2nc(Nc3ccc(N4CCN(C)CC4)c(S(=O)(=O)NCCCO)c3)ncc12)(C(C)C)C(C)C, other bond, 13-membered ring, PPh3/DIAD, THF, 24.3 mM) of 15%.
`CC(C)[Si](C#Cc1cc(=O)n2c3nc(ncc13)Nc1cccc(c1)COCC=CC2)(C(C)C)C(C)C` gave a ring closure, isolated yield (from CC(C)[Si](C#Cc1cc(=O)[nH]c2nc(Nc3cccc(COC/C=C\CO)c3)ncc12)(C(C)C)C(C)C, other bond, 14-membered ring, PPh3/DIAD, THF, 24.0 mM) of 56%.
With `CC(C)[Si](C#Cc1cc(=O)n2c3nc(ncc13)Nc1cccc(c1)OCC=CC2)(C(C)C)C(C)C` the ring closure, isolated yield (from CC(C)[Si](C#Cc1cc(=O)n(C/C=C\CO)c2nc(Nc3cccc(O)c3)ncc12)(C(C)C)C(C)C, ether bond, 13-membered ring, PPh3/DIAD, THF, 25.0 mM) was 33% and the ring closure, isolated yield (from CC(C)[Si](C#Cc1cc(=O)n(C/C=C\CO)c2nc(Nc3cccc(O)c3)ncc12)(C(C)C)C(C)C, ether bond, 13-membered ring, PPh3/DIAD, THF, 278.0 mM) was 52%.
With `CC(C)[Si](C#Cc1cc(=O)n2c3nc(ncc13)Nc1cccc(c1)OCCC2)(C(C)C)C(C)C` the ring closure, isolated yield (from CC(C)[Si](C#Cc1cc(=O)n(CCCO)c2nc(Nc3cccc(O)c3)ncc12)(C(C)C)C(C)C, ether bond, 12-membered ring, PPh3/DIAD, THF, 52.0 mM) was 31%.
`CC(C)[Si](C#Cc1cc(=O)n2c3nc(ncc13)Nc1cccc(c1)OC[C@H]1CC[C@H](C1)C2)(C(C)C)C(C)C` showed a ring closure, isolated yield (from CC(C)[Si](C#Cc1cc(=O)[nH]c2nc(Nc3cccc(OC[C@H]4CC[C@@H](CO)C4)c3)ncc12)(C(C)C)C(C)C, other bond, 14-membered ring, PPh3/DIAD, THF, 183.0 mM) of 26%.
Molecule `CC1CCCCOc2cc(ccc2N2CCN(C)CC2)Nc2ncc3c(C#C[Si](C(C)C)(C(C)C)C(C)C)cc(=O)n1c3n2` (stereo not shown) has a ring closure, isolated yield (from CC(O)CCCCOc1cc(Nc2ncc3c(C#C[Si](C(C)C)(C(C)C)C(C)C)cc(=O)[nH]c3n2)ccc1N1CCN(C)CC1, other bond, 14-membered ring, PPh3/DIAD, THF, 24.0 mM) of 19%.
`COCCN1CCN(c2ccc3cc2NC(=O)CCCn2c(=O)cc(C#C[Si](C(C)C)(C(C)C)C(C)C)c4cnc(nc42)N3)CC1` gave a ring closure, isolated yield (from COCCN1CCN(c2ccc(Nc3ncc4c(C#C[Si](C(C)C)(C(C)C)C(C)C)cc(=O)[nH]c4n3)cc2NC(=O)CCCO)CC1, other bond, 13-membered ring, PPh3/DEAD, THF, 25.7 mM) of 42%.
`Cc1c(C#C[Si](C(C)C)(C(C)C)C(C)C)c2cnc3nc2n(c1=O)CC=CCOc1cccc(c1)N3` showed a ring closure, isolated yield (from Cc1c(C#C[Si](C(C)C)(C(C)C)C(C)C)c2cnc(Nc3cccc(O)c3)nc2n(C/C=C\CO)c1=O, ether bond, 13-membered ring, PPh3/DIAD, THF, 180.0 mM) of 52%.
Molecule `Cc1c(C#C[Si](C(C)C)(C(C)C)C(C)C)c2cnc3nc2n(c1=O)CCCCCOc1cc(ccc1N1CCN(C)CC1)N3` has a ring closure, isolated yield (from Cc1c(C#C[Si](C(C)C)(C(C)C)C(C)C)c2cnc(Nc3ccc(N4CCN(C)CC4)c(OCCCCCO)c3)nc2[nH]c1=O, other bond, 14-membered ring, PPh3/DEAD, THF, 94.8 mM) of 51%.
“1^6-methyl-3^4-(4-methylpiperazin-1-yl)-1^5-((triisopropylsilyl)ethynyl)-1^7,1^8-dihydro-4-oxa-2-aza-1(2,8)-pyrido[2,3-d]pyrimidina-3(1,3)-benzenacyclooctaphan-1^7-one” gave a ring closure, isolated yield (other bond, 13-membered ring, PPh3/DIAD, THF, 107.0 mM) of 56%.
In the case of “3^4-(4-(2-Methoxyethyl)piperazin-1-yl)-1^5-((triisopropylsilyl)ethynyl)-1^7,1^8-dihydro-4-oxa-2-aza-1(2,8)-pyrido[2,3-d]pyrimidina-3(1,3)-benzenacyclooctaphan-1^7-one”, the ring closure, isolated yield (other bond, 13-membered ring, PPh3/DEAD, THF, 83.2 mM) is reported as 49%.
With “3^4-(4-Methylpiperazin-1-yl)-1^5-((triisopropylsilyl)ethynyl)-1^7,1^8-dihydro-2,6-diaza-1(2,8)-pyrido[2,3-d]pyrimidina-3(1,3)-benzenacyclooctaphane-1^7,7-dione” the ring closure, isolated yield (other bond, 13-membered ring, PPh3/DEAD, DCM, 130.0 mM) was 38%.
